# Where a name gives a salt, the structure may show the parent alone. Read-outs that look alike come from different tables or passages of the source.
# Legend:
# [1] = tested on: hematological and solid tumor xenograft models; conditions: range of hematological and solid tumor xenograft models; cited from earlier work
# [2] = tested on: multiple myeloma patients (NRAS / KRAS status of tumor); experiment: Pharmacogenomic analysis: pre-treatment NRAS/KRAS mutation status versus response, time-to-progression and overall survival; assay type: in vivo, human
# From the text: Patient samples and response criteria from patients participating in these studies, as well as the following additional studies described below were sought for use in pharmacogenomic analyses to identify markers associated with patient survival. […] The bone marrow aspirates were collected prior to the patient's treatment in the studies. […] Dexamethasone is a synthetic adrenocorticosteroid, CAS Registry No. […], administered as tablets (DECADRON® Merck & Co., Inc.). The trials are described in the following paragraphs.
# Upon collection of patient bone marrow aspirate, the myeloma cells were enriched via rapid negative selection. The enrichment procedure employs a cocktail of cell-type specific antibodies coupled with an antibody that binds red blood cells RosetteSep (Stem Cell Technologies). The antibody cocktail has antibodies with the following specificity: CD14 (monocytes), CD2 (T and NK cells), CD33 (myeloid progenitors and monocytes), CD41 (platelets and megakaryocytes), CD45RA (naïve B and T cells) and CD66b (granulocytes). The antibodies cross-linked the non-myeloma cell types to the red blood cells in the samples. The bound cell types were removed using a modified ficoll density gradient. Myeloma cells were then collected and frozen. In the international studies, the first two samples from each site were collected and subjected to RNA isolation so that feedback on quantity and quality could be provided; ultimately Phase 2 and 3 trials provided a similar percentage of informative samples. Control bone marrow plasma cell samples were obtained from normal donors (AllCells, Berkeley, Calif.).
# Flow through from the RNEASY® column was clarified by centrifugation, then concentrated about 10-fold with centrifugal ultrafilters (MICROCON® centrifugal filter device, YM-30 membrane (30 kDa limit), Millipore Corp. Billerica, Mass.). Impurities were removed using the Qiagen QIAMP® DNA Micro Kit. DNA from the sample was amplified using the Qiagen REPLI-G® WGA kit. Mutation status of DNA from 133 bone marrow tumor biopsies was determined by testing a panel of cancer genes and known tumor suppressors using the Sequenom (San Diego, Calif.) mass spectrometry genotype analysis system.
# Rather, the platform interrogated tumor DNA only for specific sequences that were previously implicated in cancer (i.e. ‘hotspot’ mutations), relying largely on the prior knowledge that these are highly relevant in human cancer. The panel of mutations evaluated consisted of the ONCOCARTA™ version 1.0 and custom assays designed in collaboration with Sequenom and Millennium to expand the list of mutations surveyed to 514 known mutations in 41 oncogenes and tumor suppressor genes. Table 5 lists genes with mutations included in the panel and the number in parentheses 0 indicates the approximate number of mutations targeted in assays of the genes.
# The custom assays were designed using TYPEPLEX® chemistry with single-base extension which determines the expected mass weight of the extend products to ensure separation between all potential peaks found within a multiplexed reaction. 15 nl of amplified and extended product is spotted on a 384 SpectroCHIP II using a Nanodispenser. A 3-point calibrant is added to every chip to ensure proper performance of the Sequenom Maldi-tof compact mass spectrometer. The SpectroCHIP II is placed in the Sequenom MALDI-TOF compact mass spectrometer. The mass spectrometer is set to fire a maximum of 9 acquisitions for each spot on the 384 well SpectroCHIP. TypePLEX Gold kit SpectroCHIP II is used following manufacturers recommended protocols.
# Analysis is performed using Sequenom analysis software, MassARRAY® Typer Analyzer v4 with a mutation call filter of ≧8%, Signal:Noise>5 (background), followed by a manual inspections for false positives due to Impurities (ie Salts). Default threshold for positive mutant call is a minimal 10% mutant allele frequency, though signal as low as 3% may be detected. […]
# [3] = tested on: t(4;14) translocation in MM; conditions: bortezomib alone or in combination; cited from earlier work
# [4] = tested on: relapsed and refractory myeloma; conditions: cited from earlier work
# [5] = tested on: relapsed multiple myeloma; conditions: cited from earlier work
# [6] = tested on: multiple myeloma patients (t(4;14) / NRAS status of tumor); experiment: t(4;14) and NRAS status versus response in patients with tumor subtype data; assay type: in vivo, human
# From the text: Table 12 details the t(4;14) and NRAS status of the current dataset for patients both with tumor subtype data (Mulligan et al. (2007) Blood 109:3177-3188) and who were response-evaluable (n=40).
# [7] = tested on: relapsed or refractory multiple myeloma; experiment: APEX phase 3 trial (039), bortezomib versus high-dose dexamethasone, EBMT response criteria; assay type: in vivo, human; conditions: for Complete response / Complete response achieved, number of patients / Median duration of response / One-year survival / complete response plus near-complete response / response rate (complete plus partial response (CR+PR)) / Median time to response: -039 trial; for Median time to response: both groups
# Protocol: Patients who received dexamethasone were treated for a maximum of 280 days by the following method: received up to four 5-week treatment cycles, followed by up to five 4-week treatment cycles. Within each 5-week treatment cycle, the patient received dexamethasone 40 mg/day PO, once daily on Days 1 to 4, 9 to 12, and 17 to 20 of a 35-day cycle. Within each 4-week treatment cycle, the patient received dexamethasone 40 mg/day PO once daily on Days 1 to 4 of a 28 day cycle.
# The following section presents more detailed information on the -039 trial. During the study, disease response was assessed according to the European Group for Blood and Marrow Transplant (EBMT) criteria as presented in Table 3.
# Response and date of disease progression was determined by computer algorithm that integrated data from a central laboratory and case report forms from each clinical site, according to the Blade criteria (Table 3). […] See Richardson et al., supra.
# Disease progression was determined by Blade criteria as described in Table 3 and above. […] The date of progression was determined by computer algorithm. P-value from log-rank test adjusted by actual randomization factors. See Richardson et al., supra.
# [8] = in this set of patients (pharmacogenomic set)
# [9] = totals (all samples of the 2-by-2 table)
# [10] = NRAS mutant and not t(4; 14), N=32
# [11] = NRAS wild type and not t(4; 14), N=32
# [12] = bortezomib n = 315, dexamethasone n = 312
# [13] = bortezomib versus dexamethasone
smiles,measurement,setting,value
"CC(C)C[C@H](NC(=O)CNC(=O)c1cc(Cl)ccc1Cl)B1OC(=O)C(CC(=O)O)(CC(=O)O)O1 [Ixazomib citrate, 2,2′-{2-[(1R)-1-({[(2,5dichlorobenzoyl)amino]acetyl}amino)-3-methylbutyl]-5-oxo-1,3,2-dioxaborolane-4,4-diyl}diacetic acid]",anti-tumor activity,[1],has anti-tumor activity
"CC(C)C[C@H](NC(=O)[C@H](Cc1ccccc1)NC(=O)c1cnccn1)B(O)O [bortezomib, N(pyrazine)carbonyl-L-phenylalanine-L-leucine boronic acid]","Non-response, number of patient samples",[2]; KRAS mutant,8
same,"Response, number of patient samples",[2]; KRAS mutant,9
same,"Non-response, number of patient samples",[2]; KRAS wild type,34
same,"Response, number of patient samples",[2]; KRAS wild type,23
same,"Non-response, number of patient samples",[2]; NRAS mutant,14
same,"Response, number of patient samples",[2]; NRAS mutant,1
same,"Non-response, number of patient samples",[2]; NRAS wild type,28
same,"Response, number of patient samples",[2]; NRAS wild type,31
same,CR+PR rate,[2]; [8],32%
same,overall response rate,[2]; [8],42.3%
same,time-to-progression after bortezomib treatment,[2]; patients whose pre-treatment bone marrow tumor samples had NRAS mutations,significantly lower
same,"Non-response, number of patient samples",[2]; [9],42
same,"Response, number of patient samples",[2]; [9],32
same,effect on poor prognosis associated with the t(4;14) translocation,[3],at least partially overcomes the poor prognosis
same,"CR+PR+MR, number of patients","[4]; Study -025, of 193 patients",67 patients
same,"CR+PR, number of patients","[4]; Study -025, of 193 patients",53 patients
same,CR+PR rate to bortezomib alone,[4]; Study -025,27%
same,overall response rate (CR+PR+minimal response (MR)) to bortezomib alone,[4]; Study -025,35%
same,complete response (CR)+partial response (PR) rate,"[5]; bortezomib 1.0 mg/m^2, Study -024",30%
same,complete response (CR)+partial response (PR) rate,"[5]; bortezomib 1.3 mg/m^2, Study -024",38%
same,"Non-response, number of patients",[6]; [10],10
same,"Response, number of patients",[6]; [10],0
same,"Non-response, number of patients","[6]; NRAS mutant, n = 40 cohort",10
same,"Response, number of patients","[6]; NRAS mutant, n = 40 cohort",1
same,"Non-response, number of patients",[6]; [11],11
same,"Response, number of patients",[6]; [11],11
same,"Non-response, number of patients","[6]; NRAS wild type, n = 40 cohort",13
same,"Response, number of patients","[6]; NRAS wild type, n = 40 cohort",16
same,"Non-response, number of patients","[6]; Other subtypes, n = 40 cohort",21
same,"Response, number of patients","[6]; Other subtypes, n = 40 cohort",11
same,"Non-response, number of patients","[6]; t(4; 14), n = 40 cohort",2
same,"Response, number of patients","[6]; t(4; 14), n = 40 cohort",6
same,Complete response,[7],6%
same,"Complete response achieved, number of patients",[7],20 patients
same,Median duration of response,[7],8 months
same,One-year survival,[7],80%
same,complete response plus near-complete response,[7],13%
same,response rate (complete plus partial response (CR+PR)),[7],38%
same,Median time to response,[7],43 days
same,decrease in risk of death,"[7]; bortezomib group versus dexamethasone, first year after enrollment",41%
same,Best Confirmed Response: CR + PR + MR,[7]; [12],146 (46) n (%)
same,Best Confirmed Response: Complete Response,[7]; [12],20 (6) n (%)
same,Best Confirmed Response: Minor Response,[7]; [12],25 (8) n (%)
same,Best Confirmed Response: Near CR: IF+,[7]; [12],21 (7) n (%)
same,Best Confirmed Response: No Change,[7]; [12],137 (43) n (%)
same,Best Confirmed Response: Not Evaluable,[7]; [12],10 (3) n (%)
same,Best Confirmed Response: Overall Response Rate (CR + PR),[7]; [12],121 (38) n (%)
same,Best Confirmed Response: Progressive Disease,[7]; [12],22 (7) n (%)
same,Best Confirmed Response: SWOG Remission,[7]; [12],46 (15) n (%)
same,Difference (95% CI) in CR + PR + MR,[7]; [13],"0.12 (0.04, 0.19)"
same,Difference (95% CI) in Complete Response,[7]; [13],"0.06 (0.03, 0.09)"
same,Difference (95% CI) in Minor Response,[7]; [13],"−0.09 (−0.14, −0.04)"
same,Difference (95% CI) in Near CR: IF+,[7]; [13],"0.06 (0.03, 0.09)"
same,Difference (95% CI) in No Change,[7]; [13],"−0.04 (−0.12, 0.04)"
same,Difference (95% CI) in Not Evaluable,[7]; [13],"−0.01 (−0.04, 0.02)"
same,Difference (95% CI) in Overall Response Rate (CR + PR),[7]; [13],"0.20 (0.14, 0.27)"
same,Difference (95% CI) in Partial Response,[7]; [13],"0.15 (0.08, 0.21)"
same,Difference (95% CI) in Progressive Disease,[7]; [13],"−0.06 (−0.11, −0.01)"
same,Difference (95% CI) in SWOG Remission,[7]; [13],"0.09 (0.05, 0.14)"
C[C@@H]1C[C@H]2[C@@H]3CCC4=CC(=O)C=C[C@]4(C)[C@@]3(F)[C@@H](O)C[C@]2(C)[C@@]1(O)C(=O)CO [dexamethasone],"Non-response, number of patient samples",[2]; KRAS mutant,6
same,"Response, number of patient samples",[2]; KRAS mutant,3
same,"Non-response, number of patient samples",[2]; KRAS wild type,14
same,"Response, number of patient samples",[2]; KRAS wild type,8
same,"Non-response, number of patient samples",[2]; NRAS mutant,3
same,"Response, number of patient samples",[2]; NRAS mutant,3
same,"Non-response, number of patient samples",[2]; NRAS wild type,17
same,"Response, number of patient samples",[2]; NRAS wild type,8
same,"Non-response, number of patient samples",[2]; [9],20
same,"Response, number of patient samples",[2]; [9],11
same,Complete response,[7],< 1%
same,"Complete response achieved, number of patients",[7],2 patients
same,Median duration of response,[7],5.6 months
same,One-year survival,[7],66%
same,complete response plus near-complete response,[7],2%
same,response rate (complete plus partial response (CR+PR)),[7],18%
same,Median time to response,[7],43 days
same,Best Confirmed Response: CR + PR + MR,[7]; [12],108 (35) n (%)
same,Best Confirmed Response: Complete Response,[7]; [12],2 (<1) n (%)
same,Best Confirmed Response: Minor Response,[7]; [12],52 (17) n (%)
same,Best Confirmed Response: Near CR: IF+,[7]; [12],3 (<1) n (%)
same,Best Confirmed Response: No Change,[7]; [12],149 (48) n (%)
same,Best Confirmed Response: Not Evaluable,[7]; [12],14 (4) n (%)
same,Best Confirmed Response: Overall Response Rate (CR + PR),[7]; [12],56 (18) n (%)
same,Best Confirmed Response: Partial Response,[7]; [12],54 (17) n (%)
same,Best Confirmed Response: Progressive Disease,[7]; [12],41 (13) n (%)
same,Best Confirmed Response: SWOG Remission,[7]; [12],17 (5) n (%)
